Where a SMILES comes first, the peptide text is derived from it. [ ]: non-standard residue; d: D form.

In the first test the target is T1, PSD-95-PDZ2 (Homo sapiens, UniProt P78352).
T1 construct: 7xHis (N); made in house; host or cells: Escherichia coli B21 pLys (for the mutants, 'as previously described')
T1 sequence (P78352 160-246 limits assumed): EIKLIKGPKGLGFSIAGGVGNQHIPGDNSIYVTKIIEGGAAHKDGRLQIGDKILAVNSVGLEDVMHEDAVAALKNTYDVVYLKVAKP
Briefly: Fluorescence polarization (FP) competition assay against cyclic nNOS TAMRA probe. The following applies: FP competition, cyclic nNOS TAMRA probe; mean of triplicates; N.B. = not binding. Format: binding.
For “90 (THLETTXTGDGTPKTIRVTQPGQ; cyclized peptide; (7)..(7) X is N-Me-F; (21)..(21) is D-AA) [compound 90]”, the Ki result is listed as “N.B”.

Take “80 (THLEXTFTGDGTPKTIRVTQPGQ; cyclized peptide; (5)..(5) X is AlloT; (21)..(21) is D-AA) [compound 80]”: the Ki entry is listed as “N.B”.

For the compound “108 (THLETTFTGDGTPKXIRVTQPGQ; cyclized peptide; (15)..(15) X is pT; (21)..(21) is D-AA) [compound 108]”, the Ki entry is recorded as “N.B”.

The same test, now with this note: FP competition, cyclic nNOS TAMRA probe; mean of triplicates; N.B. = not binding; read-out: Ki.
Turning to `CC[C@H](C)[C@@H]1NC(=O)[C@H]([C@@H](C)O)NC(=O)[C@H](CCCCN)NC(=O)[C@@H]2CCCN2C(=O)[C@H]([C@@H](C)O)NC(=O)[C@@H]2CCCN2C(=O)[C@H](CC(=O)O)NC(=O)CNC(=O)[C@H](Cc2c[nH]c3ccccc23)NC(=O)[C@H](Cc2ccccc2)NC(=O)[C@H]([C@@H](C)O)NC(=O)[C@H]([C@@H](C)O)NC(=O)[C@H](CCC(=O)O)NC(=O)[C@H](CC(C)C)NC(=O)[C@H](Cc2c[nH]cn2)NC(=O)[C@H]([C@@H](C)O)NC(=O)[C@H](CCC(N)=O)NC(=O)CNC(=O)[C@H]2CCCN2C(=O)[C@H](CCC(N)=O)NC(=O)[C@H]([C@@H](C)O)NC(=O)[C@H](C(C)C)NC(=O)[C@H](CCCNC(=N)N)NC1=O` [compound 131] (cyclo(THLETTFWGDPTPKTIRVTQ[dP]GQ)), the Ki was found to be 0.95 µM.

On to `CC[C@H](C)[C@@H]1NC(=O)[C@H]([C@@H](C)O)NC(=O)[C@H](CCCCN)NC(=O)[C@H]2CCCN2C(=O)[C@H]([C@@H](C)O)NC(=O)CNC(=O)[C@H](CC(=O)O)NC(=O)CNC(=O)[C@H]([C@@H](C)O)NC(=O)[C@H](Cc2ccccc2)NC(=O)[C@H]([C@@H](C)O)NC(=O)[C@H]([C@@H](C)O)NC(=O)[C@H](CCC(=O)O)NC(=O)[C@H](CC(C)C)NC(=O)[C@H](Cc2c[nH]cn2)NC(=O)[C@H]([C@@H](C)O)NC(=O)[C@H](CCC(N)=O)NC(=O)CNC(=O)[C@H]2CCCN2C(=O)[C@H](CCC(N)=O)NC(=O)[C@H]([C@@H](C)O)NC(=O)[C@H](C(C)C)NC(=O)[C@H](CCCNC(=N)N)NC1=O` [compound 122], for which the inhibition constant Ki amounted to 6.7 µM.

In the case of `CC[C@H](C)[C@@H]1NC(=O)[C@H]([C@@H](C)O)NC(=O)[C@H](CCCCN)NC(=O)[C@@H]2CCCN2C(=O)[C@H]([C@@H](C)O)NC(=O)CNC(=O)[C@H](CC(=O)O)NC(=O)CNC(=O)[C@H]([C@@H](C)O)NC(=O)[C@H](Cc2ccccc2)NC(=O)[C@H]([C@@H](C)O)NC(=O)[C@H]([C@@H](C)O)NC(=O)[C@H](CCC(=O)O)NC(=O)[C@H](CC(C)C)NC(=O)[C@H](Cc2c[nH]cn2)NC(=O)[C@@H]([C@H](C)O)NC(=O)[C@H](CCC(N)=O)NC(=O)CNC(=O)[C@H]2CCCN2C(=O)[C@H](CCC(N)=O)NC(=O)[C@H]([C@@H](C)O)NC(=O)[C@H](C(C)C)NC(=O)[C@H](CCCNC(=N)N)NC1=O` [compound 112], the Ki worked out at 14.6 µM.

Take `CC[C@H](C)[C@@H]1NC(=O)[C@H]([C@@H](C)O)NC(=O)[C@H](CCCCN)NC(=O)[C@@H]2CCCN2C(=O)[C@H]([C@@H](C)O)NC(=O)CNC(=O)[C@H](CC(=O)O)NC(=O)CNC(=O)[C@H]([C@@H](C)O)NC(=O)[C@H](Cc2ccccc2)NC(=O)[C@H]([C@@H](C)O)NC(=O)[C@H]([C@@H](C)O)NC(=O)[C@H](CCC(=O)O)NC(=O)[C@H](CC(C)C)NC(=O)[C@H](Cc2c[nH]cn2)NC(=O)[C@H]([C@@H](C)O)NC(=O)[C@H](CCC(N)=O)NC(=O)CNC(=O)[C@H]2CCCN2C(=O)[C@H](CCC(N)=O)NC(=O)[C@H]([C@@H](C)O)NC(=O)[C@H](C(C)C)NC(=O)[C@H](CCCNC(=N)N)NC1=O` [SEQ ID NO: 433]: the Ki is 1.5 ± 0.2 µM.

Regarding `CC[C@H](C)[C@@H]1NC(=O)[C@H]([C@@H](C)O)NC(=O)[C@H](CCCCN)NC(=O)[C@@H]2CCCN2C(=O)[C@H]([C@@H](C)O)NC(=O)CNC(=O)[C@H](CC(=O)O)NC(=O)CNC(=O)[C@H]([C@@H](C)O)NC(=O)[C@H](Cc2ccccc2)NC(=O)[C@H]([C@@H](C)O)NC(=O)[C@H]([C@@H](C)O)NC(=O)[C@H](CCC(=O)O)NC(=O)[C@H](CC(C)C)NC(=O)[C@@H](Cc2c[nH]cn2)NC(=O)[C@H]([C@@H](C)O)NC(=O)[C@H](CCC(N)=O)NC(=O)CNC(=O)[C@H]2CCCN2C(=O)[C@H](CCC(N)=O)NC(=O)[C@H]([C@@H](C)O)NC(=O)[C@H](C(C)C)NC(=O)[C@H](CCCNC(=N)N)NC1=O` [compound 113], the Ki is 13.1 µM.

Turning to `CC[C@H](C)[C@@H]1NC(=O)[C@H]([C@@H](C)O)NC(=O)[C@H](CCCCN)NC(=O)[C@@H]2CCCN2C(=O)[C@H]([C@@H](C)O)NC(=O)CNC(=O)[C@H](CCCNC(=N)N)NC(=O)CNC(=O)[C@H]([C@@H](C)O)NC(=O)[C@H](Cc2ccccc2)NC(=O)[C@H]([C@@H](C)O)NC(=O)[C@H]([C@@H](C)O)NC(=O)[C@H](CCC(=O)O)NC(=O)[C@H](CC(C)C)NC(=O)[C@H](Cc2c[nH]cn2)NC(=O)[C@H]([C@@H](C)O)NC(=O)[C@H](CCC(N)=O)NC(=O)CNC(=O)[C@H]2CCCN2C(=O)[C@H](CCC(N)=O)NC(=O)[C@H]([C@@H](C)O)NC(=O)[C@H](C(C)C)NC(=O)[C@H](CCCNC(=N)N)NC1=O` [compound 34] (cyclo(THLETTFTGRGTPKTIRVTQ[dP]GQ)), the Ki is 0.99 µM.

Still in this test, the particulars now being: FP competition, relative to unsubstituted cyclic peptide.
Take `CC[C@H](C)[C@@H]1NC(=O)[C@H]([C@@H](C)O)NC(=O)[C@H](CCCCN)NC(=O)[C@@H]2CCCN2C(=O)[C@H]([C@@H](C)O)NC(=O)CNC(=O)[C@H](CC(=O)O)NC(=O)CNC(=O)[C@H]([C@@H](C)O)NC(=O)[C@H](Cc2ccccc2)NC(=O)[C@H]([C@@H](C)O)NC(=O)[C@H]([C@@H](C)O)NC(=O)[C@H](CCC(=O)O)NC(=O)[C@H](CC(C)C)NC(=O)[C@H](Cc2c[nH]cn2)NC(=O)[C@H]([C@@H](C)O)N(C)C(=O)[C@H](CCC(N)=O)NC(=O)CNC(=O)[C@H]2CCCN2C(=O)[C@H](CCC(N)=O)NC(=O)[C@H]([C@@H](C)O)NC(=O)[C@H](C(C)C)NC(=O)[C@H](CCCNC(=N)N)NC1=O` [SEQ ID NO: 84]: the “fold lowered (decreased) binding affinity of the cyclic peptide” value is on record as 5 fold.

As for “Cyclo-(THLETTFTGDGTPKSIRVTQpG(Qα)) (cyclo(THLETTFTGDGTPKSIRVTQ[dP]GQ); SMILES CC[C@H](C)[C@@H]1NC(=O)[C@H](CO)NC(=O)[C@H](CCCCN)NC(=O)[C@@H]2CCCN2C(=O)[C@H]([C@@H](C)O)NC(=O)CNC(=O)[C@H](CC(=O)O)NC(=O)CNC(=O)[C@H]([C@@H](C)O)NC(=O)[C@H](Cc2ccccc2)NC(=O)[C@H]([C@@H](C)O)NC(=O)[C@H]([C@@H](C)O)NC(=O)[C@H](CCC(=O)O)NC(=O)[C@H](CC(C)C)NC(=O)[C@H](Cc2c[nH]cn2)NC(=O)[C@H]([C@@H](C)O)NC(=O)[C@H](CCC(N)=O)NC(=O)CNC(=O)[C@H]2CCCN2C(=O)[C@H](CCC(N)=O)NC(=O)[C@H]([C@@H](C)O)NC(=O)[C@H](C(C)C)NC(=O)[C@H](CCCNC(=N)N)NC1=O) [SEQ ID NO: 50]”, the “fold lowered (decreased) binding affinity of the cyclic peptide” value is recorded as 25 fold.

Still in this test, the particulars now being: FP inhibition constant normalized to WT value.
Regarding `CC[C@H](C)[C@@H]1NC(=O)[C@H]([C@@H](C)O)NC(=O)[C@H](CCCCN)NC(=O)[C@@H]2CCCN2C(=O)[C@H]([C@@H](C)O)NC(=O)CNC(=O)[C@H](CC(=O)O)NC(=O)CNC(=O)[C@H]([C@@H](C)O)NC(=O)[C@H](Cc2ccccc2)NC(=O)[C@H]([C@@H](C)O)NC(=O)[C@H]([C@@H](C)O)NC(=O)[C@H](CCC(=O)O)NC(=O)[C@H](CCCCN)NC(=O)[C@H](Cc2c[nH]cn2)NC(=O)[C@H]([C@@H](C)O)NC(=O)[C@H](CCC(N)=O)NC(=O)CNC(=O)[C@H]2CCCN2C(=O)[C@H](CCC(N)=O)NC(=O)[C@H]([C@@H](C)O)NC(=O)[C@H](C(C)C)NC(=O)[C@H](CCCNC(=N)N)NC1=O` [compound 22] (cyclo(THKETTFTGDGTPKTIRVTQ[dP]GQ)), the “Relative Ki (Ki mut/Ki WT)” value was found to be 0.80.

Regarding `CC[C@H](C)[C@@H]1NC(=O)[C@H]([C@@H](C)O)NC(=O)[C@H](CCCCN)NC(=O)[C@@H]2CCCN2C(=O)[C@H]([C@@H](C)O)NC(=O)CNC(=O)[C@H](CC(=O)O)NC(=O)CNC(=O)[C@H]([C@@H](C)O)NC(=O)[C@H](Cc2ccccc2)NC(=O)[C@H]([C@@H](C)O)NC(=O)[C@H]([C@@H](C)O)NC(=O)[C@H](CCC(=O)O)NC(=O)[C@H](C)NC(=O)[C@H](Cc2c[nH]cn2)NC(=O)[C@H]([C@@H](C)O)NC(=O)[C@H](CCC(N)=O)NC(=O)CNC(=O)[C@H]2CCCN2C(=O)[C@H](CCC(N)=O)NC(=O)[C@H]([C@@H](C)O)NC(=O)[C@H](C(C)C)NC(=O)[C@H](CCCNC(=N)N)NC1=O` [compound 57] (cyclo(THAETTFTGDGTPKTIRVTQ[dP]GQ)), the “Relative Ki (Ki mut/Ki WT)” value is 2.36.

As for `CC[C@H](C)[C@@H]1NC(=O)[C@H]([C@@H](C)O)NC(=O)[C@H](CCCCN)NC(=O)[C@@H]2CCCN2C(=O)[C@H](Cc2c[nH]c3ccccc23)NC(=O)CNC(=O)[C@H](CC(=O)O)NC(=O)CNC(=O)[C@H]([C@@H](C)O)NC(=O)[C@H](Cc2ccccc2)NC(=O)[C@H]([C@@H](C)O)NC(=O)[C@H]([C@@H](C)O)NC(=O)[C@H](CCC(=O)O)NC(=O)[C@H](CC(C)C)NC(=O)[C@H](Cc2c[nH]cn2)NC(=O)[C@H]([C@@H](C)O)NC(=O)[C@H](CCC(N)=O)NC(=O)CNC(=O)[C@H]2CCCN2C(=O)[C@H](CCC(N)=O)NC(=O)[C@H]([C@@H](C)O)NC(=O)[C@H](C(C)C)NC(=O)[C@H](CCCNC(=N)N)NC1=O` [compound 36] (cyclo(THLETTFTGDGWPKTIRVTQ[dP]GQ)), the “Relative Ki (Ki mut/Ki WT)” value came out at 0.69.

On to `CC[C@H](C)[C@@H]1NC(=O)[C@H]([C@@H](C)O)NC(=O)[C@H](CCCCN)NC(=O)[C@@H]2CCCN2C(=O)[C@H]([C@@H](C)O)NC(=O)CNC(=O)[C@H](CCCCN)NC(=O)CNC(=O)[C@H]([C@@H](C)O)NC(=O)[C@H](Cc2ccccc2)NC(=O)[C@H]([C@@H](C)O)NC(=O)[C@H]([C@@H](C)O)NC(=O)[C@H](CCC(=O)O)NC(=O)[C@H](CC(C)C)NC(=O)[C@H](Cc2c[nH]cn2)NC(=O)[C@H]([C@@H](C)O)NC(=O)[C@H](CCC(N)=O)NC(=O)CNC(=O)[C@H]2CCCN2C(=O)[C@H](CCC(N)=O)NC(=O)[C@H]([C@@H](C)O)NC(=O)[C@H](C(C)C)NC(=O)[C@H](CCCNC(=N)N)NC1=O` [compound 28] (cyclo(THLETTFTGKGTPKTIRVTQ[dP]GQ)), for which the “Relative Ki (Ki mut/Ki WT)” value stood at 1.91.

Regarding `CC[C@H](C)[C@@H]1NC(=O)[C@H]([C@@H](C)O)NC(=O)[C@H](CCCCN)NC(=O)[C@@H]2CCCN2C(=O)[C@H]([C@@H](C)O)NC(=O)CNC(=O)[C@H](CCCNC(=N)N)NC(=O)CNC(=O)[C@H]([C@@H](C)O)NC(=O)[C@H](Cc2ccccc2)NC(=O)[C@H]([C@@H](C)O)NC(=O)[C@H]([C@@H](C)O)NC(=O)[C@H](CCC(=O)O)NC(=O)[C@H](CC(C)C)NC(=O)[C@H](Cc2c[nH]cn2)NC(=O)[C@H]([C@@H](C)O)NC(=O)[C@H](CCC(N)=O)NC(=O)CNC(=O)[C@H]2CCCN2C(=O)[C@H](CCC(N)=O)NC(=O)[C@H]([C@@H](C)O)NC(=O)[C@H](C(C)C)NC(=O)[C@H](CCCNC(=N)N)NC1=O` [compound 34] (cyclo(THLETTFTGRGTPKTIRVTQ[dP]GQ)), the “Relative Ki (Ki mut/Ki WT)” value is 0.66.

Source of the values: patent US20230220021A1, “CYCLIC PEPTIDE INHIBITORS OF PSD-95 AND USES THEREOF” (University of Copenhagen, priority 2020, published 2023).
